According to patent US20240400544A1, “N-(HYDROXYALKYL (HETERO)ARYL) TETRAHYDROFURAN CARBOXAMIDE ANALOGS AS MODULATORS OF SODIUM CHANNELS” (VERTEX PHARMACEUTICALS INCORPORATED, priority 2021, published 2024):

Each compound was assayed against human NaV 1.8 (Homo sapiens, UniProt Q9Y5Y9) (assay: E-VIPR Assay Detecting and Measuring NaV Inhibition Properties). Settings: HEK cells expressing a truncated form of human NaV 1.8 with full channel activity; electrical stimulation, membrane potential FRET dyes; read-out: measured IC50 value in the E-VIPR Assay.
Sequence of human NaV 1.8 (Q9Y5Y9 126-1722 limits assumed): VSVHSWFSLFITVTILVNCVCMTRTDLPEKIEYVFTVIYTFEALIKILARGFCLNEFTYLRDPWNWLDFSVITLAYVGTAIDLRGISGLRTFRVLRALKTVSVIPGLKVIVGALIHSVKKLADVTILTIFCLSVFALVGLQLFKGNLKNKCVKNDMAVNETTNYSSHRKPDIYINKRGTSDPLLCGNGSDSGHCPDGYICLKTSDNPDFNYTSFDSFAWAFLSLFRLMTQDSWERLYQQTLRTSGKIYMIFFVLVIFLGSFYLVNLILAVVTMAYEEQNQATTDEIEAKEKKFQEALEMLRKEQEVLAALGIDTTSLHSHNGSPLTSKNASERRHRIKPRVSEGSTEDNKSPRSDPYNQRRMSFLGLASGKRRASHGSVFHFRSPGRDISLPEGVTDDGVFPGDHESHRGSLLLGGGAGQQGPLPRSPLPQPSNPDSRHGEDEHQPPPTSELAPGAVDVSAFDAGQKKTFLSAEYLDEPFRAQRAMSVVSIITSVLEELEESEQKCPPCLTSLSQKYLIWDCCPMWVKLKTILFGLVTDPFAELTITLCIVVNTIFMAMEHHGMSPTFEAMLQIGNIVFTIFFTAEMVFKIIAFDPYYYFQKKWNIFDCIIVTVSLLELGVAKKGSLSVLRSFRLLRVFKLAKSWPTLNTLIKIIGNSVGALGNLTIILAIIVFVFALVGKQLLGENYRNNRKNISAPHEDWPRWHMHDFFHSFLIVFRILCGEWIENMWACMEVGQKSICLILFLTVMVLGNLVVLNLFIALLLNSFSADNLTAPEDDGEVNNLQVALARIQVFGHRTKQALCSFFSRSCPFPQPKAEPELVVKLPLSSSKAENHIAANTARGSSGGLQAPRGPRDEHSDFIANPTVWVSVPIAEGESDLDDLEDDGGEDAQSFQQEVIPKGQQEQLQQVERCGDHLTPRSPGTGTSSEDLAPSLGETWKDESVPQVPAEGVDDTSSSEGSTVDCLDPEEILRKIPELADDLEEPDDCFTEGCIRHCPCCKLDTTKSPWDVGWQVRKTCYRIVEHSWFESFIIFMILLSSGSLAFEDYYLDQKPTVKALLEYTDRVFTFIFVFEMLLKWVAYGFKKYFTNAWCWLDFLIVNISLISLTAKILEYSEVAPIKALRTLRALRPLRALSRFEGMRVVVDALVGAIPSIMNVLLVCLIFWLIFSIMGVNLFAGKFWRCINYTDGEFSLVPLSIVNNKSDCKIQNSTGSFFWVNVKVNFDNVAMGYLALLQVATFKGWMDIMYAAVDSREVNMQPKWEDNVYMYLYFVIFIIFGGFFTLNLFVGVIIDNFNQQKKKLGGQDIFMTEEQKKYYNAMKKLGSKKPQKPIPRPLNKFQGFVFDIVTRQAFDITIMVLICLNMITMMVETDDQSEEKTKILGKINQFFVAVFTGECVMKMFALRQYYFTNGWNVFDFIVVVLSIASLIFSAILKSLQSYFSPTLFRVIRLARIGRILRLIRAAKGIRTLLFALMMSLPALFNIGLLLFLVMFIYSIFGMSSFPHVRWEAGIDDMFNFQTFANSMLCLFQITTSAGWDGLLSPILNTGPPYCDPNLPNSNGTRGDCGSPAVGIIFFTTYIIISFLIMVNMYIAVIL
Type: cell-based
From the text: E-VIPR Assay Detecting and Measuring NaV Inhibition Properties
Sodium ion channels are voltage-dependent proteins that can be activated by inducing membrane voltage changes by applying electric fields. The electrical stimulation instrument and methods of use, referred to as E-VIPR, are described in International Publication No. WO 2002/008748 A3 and C.-J. Huang et al. Characterization of voltage-gated sodium channel blockers by electrical stimulation and fluorescence detection of membrane potential, 24 Nature Biotech. 439-46 (2006), both of which are incorporated by reference in their entirety. The instrument comprises a microtiter plate handler, an optical system for exciting the coumarin dye while simultaneously recording the coumarin and oxonol emissions, a waveform generator, a current- or voltage-controlled amplifier, and parallel electrode pairs that are inserted into assay plate wells. Under integrated computer control, this instrument passes user-programmed electrical stimulus protocols to cells within the wells of the microtiter plate.
16-20 hours prior to running the assay on E-VIPR, HEK cells expressing a truncated form of human NaV 1.8 with full channel activity were seeded into microtiter 384-well plates, pre-coated with matrigel, at a density of 25,000 cells per well. 2.5-5% KIR2.1 Bacmam virus was added to the final cell suspension before seeding into cell plates. HEK cells were grown in Dulbecco's Modified Eagle's Medium (DMEM) supplemented with 10% FBS (Fetal Bovine Serum, qualified; Sigma #F4135), 1% NEAA (Non-Essential Amino Acids, Gibco #11140), 1% HEPES (Gibco #15630), 1% Pen-Strep (Penicillin-Streptomycin; Gibco #15140) and 5 μg/ml Blasticidin (Gibco #R210-01). Cells were expanded in vented cap cell culture flasks, with 90-95% humidity and 5% CO2.
2.5-5% KIR 2.1 Bacmam virus (produced in-house), prepared as described in Section 3.3 of J. A. Fornwald et al., Gene Expression in Mammalian Cells Using BacMam, a Modified Baculovirus System, 1350 Methods in Molecular Biology 95-116 (2016), the entire contents of which are incorporated by reference. The concentration used can be dependent on viral titer of each batch.
5 mM DiSBAC6(3), a voltage sensitive oxonol acceptor (CAS number 169211-44-3; 5-[3-(1,3-dihexylhexahydro-4,6-dioxo-2-thioxo-5-pyrimidinyl)-2-propen-1-ylidene]-1,3-dihexyldihydro-2-thioxo-4,6(1H,5H)-pyrimidinedione), in dry DMSO. The preparation of DiSBAC6(3) is analogous to that of DiSBAC4(3) as described in Voltage Sensing by Fluorescence Resonance Energy Transfer in Single Cells, Gonzalez, J. E. and Tsien, R. Y. (1995) Biophys. J. 69, 1272-1280.
5 mM CC2-DMPE, a commercially available membrane-bound coumarin phospholipid FRET donor (ThermoFisher Scientific catalog number K1017, CAS number 393782-57-5; tetradecanoic acid, 1,1′-[(1R)-1-[8-(6-chloro-7-hydroxy-2-oxo-2H-1-benzopyran-3-yl)-3-hydroxy-3-oxido-8-oxo-2,4-dioxa-7-aza-3-phosphaoct-1-yl]-1,2-ethanediyl] ester) was prepared in dry DMSO. See also, Improved indicators of cell membrane potential that use fluorescence resonance energy transfer, Gonzalez, J. E. and Tsien, R. Y. (1997) Chem. Biol. 4, 269-277.
Voltage Assay Background Suppression Compound (VABSC-1) is prepared in H2O (89-363 mM, range used to maintain solubility)
Human Serum (HS, Millipore #S1P1-01KL, or Sigma SLBR5469V and SLBR5470V as a 50%/50% mixture, for 25% assay final concentration)
• Sodium Chloride 160 mM (9.35 g/L), Potassium Chloride, 4.5 mM (0.335 g/L), Glucose • 10 mM (1.8 g/L), Magnesium Chloride (Anhydrous) 1 mM (0.095 g/L), Calcium • Chloride 2 mM (0.222 g/L), HEPES 10 mM (2.38 g/L) in water.
• Sodium Chloride 96 mM (5.61 g/L), Potassium Chloride 4.5 mM (0.335 g/L), • Tetramethylammonium (TMA)-Cl 64 mM (7.01 g/L), Glucose 10 mM (1.8 g/L), • Magnesium Chloride (Anhydrous) 1 mM (0.095 g/L), Calcium Chloride 2 mM (0.222 • g/L) HEPES 10 mM (2.38 g/L) in water. […]
Work on `COCCOc1c([C@@H]2[C@@H](C(=O)Nc3cnc(C(O)CO)nc3)O[C@](C)(C(F)(F)F)[C@@H]2C)ccc(F)c1C` (single isomer, unassigned) [Compound 13] yielded an IC50 of no less than 1000 nM.
`C[C@H]1[C@@H](c2ccc(F)c(F)c2OCC2COC2)[C@H](C(=O)Nc2ccc(CO)nc2)O[C@@]1(C)C(F)(F)F` [Compound 24, (2R,3S,4S,5R)-3-(3,4-difluoro-2-(oxetan-3-ylmethoxy)phenyl)-N-(6-(hydroxymethyl)pyridin-3-yl)-4,5-dimethyl-5-(trifluoromethyl)tetrahydrofuran-2-carboxamide] was tested, and the IC50 was 10 to 100 nM.
With `C[C@H]1[C@@H](c2ccc(F)c(F)c2OCCN2C[C@H]3COC[C@H]3C2)[C@H](C(=O)Nc2cnc(CO)nc2)O[C@@]1(C)C(F)(F)F` [Compound 26, (2R,3S,4S,5R)-3-(3,4-difluoro-2-(2-((3aR,6aS)-tetrahydro-1H-furo[3,4-c]pyrrol-5(3H)-yl)ethoxy)phenyl)-N-(2-(hydroxymethyl)pyrimidin-5-yl)-4,5-dimethyl-5-(trifluoromethyl)tetrahydrofuran-2-carboxamide] the IC50 was 100 to 1000 nM.
Compound `CO[C@H](C)COc1c([C@H]2[C@H](C(=O)Nc3ccc(CO)nc3)O[C@@](C)(C(F)(F)F)[C@H]2C)ccc(F)c1F` [Compound 6, (2R,3S,4S,5R)-3-(3,4-difluoro-2-((R)-2-methoxypropoxy)phenyl)-N-(6-(hydroxymethyl)pyridin-3-yl)-4,5-dimethyl-5-(trifluoromethyl)tetrahydrofuran-2-carboxamide] has an IC50 of 10 to 100 nM.
`C[C@H]1[C@@H](c2ccc(F)c(F)c2OCC2CCOC2)[C@H](C(=O)Nc2ccc(CO)nc2)O[C@@]1(C)C(F)(F)F` (stereo partly drawn) [Compound 9, (2R,3S,4S,5R)-3-(3,4-difluoro-2-((tetrahydrofuran-3-yl)methoxy)phenyl)-N-(6-(hydroxymethyl)pyridin-3-yl)-4,5-dimethyl-5-(trifluoromethyl)tetrahydrofuran-2-carboxamide] was tested, and the IC50 was 10 to 100 nM.
Compound `COc1c([C@H]2[C@H](C(=O)Nc3cnc4c(c3)OCC4O)O[C@@](C)(C(F)(F)F)[C@H]2C)ccc(F)c1F` (single isomer, unassigned) [Compound 1, rel-(2R*,3S*,4S*,5R*)-3-(3,4-difluoro-2-methoxyphenyl)-N-(3-hydroxy-2,3-dihydrofuro[3,2-b]pyridin-6-yl)-4,5-dimethyl-5-(trifluoromethyl)tetrahydrofuran-2-carboxamide] has an IC50 of 10 to 100 nM.
Work on `C[C@H]1[C@@H](c2ccc(F)c(F)c2OCCN2CCOCC2)[C@H](C(=O)Nc2ccc(CO)nc2)O[C@@]1(C)C(F)(F)F` [Compound 25, (2R,3S,4S,5R)-3-(3,4-difluoro-2-(2-morpholinoethoxy)phenyl)-N-(6-(hydroxymethyl)pyridin-3-yl)-4,5-dimethyl-5-(trifluoromethyl)tetrahydrofuran-2-carboxamide] yielded an IC50 of 10 to 100 nM.
For `COCCOc1c([C@H]2[C@H](C(=O)Nc3ccc(C(O)COC)nc3)O[C@@](C)(C(F)(F)F)[C@H]2C)ccc(F)c1F` (single isomer, unassigned) [Compound 21, rel-(2R*,3S*,4S*,5R*)-3-(3,4-difluoro-2-(2-methoxyethoxy)phenyl)-N-(6-(1-hydroxy-2-methoxyethyl)pyridin-3-yl)-4,5-dimethyl-5-(trifluoromethyl)tetrahydrofuran-2-carboxamide], the IC50 was 10 to 100 nM.
Compound `COCCOc1c([C@H]2[C@H](C(=O)Nc3cnc(C(O)CO)nc3)O[C@@](C)(C(F)(F)F)[C@H]2C)ccc(F)c1C` (single isomer, unassigned) [Compound 17] has an IC50 of 10 to 100 nM.
`C[C@H]1[C@@H](c2ccc(F)c(F)c2OC2CC3(COC3)C2)[C@H](C(=O)Nc2ccc(CO)nc2)O[C@@]1(C)C(F)(F)F` [Compound 8, (2R,3S,4S,5R)-3-(2-((2-oxaspiro[3.3]heptan-6-yl)oxy)-3,4-difluorophenyl)-N-(6-(hydroxymethyl)pyridin-3-yl)-4,5-dimethyl-5-(trifluoromethyl)tetrahydrofuran-2-carboxamide] gave an IC50 of 100 to 1000 nM.
For `COc1c([C@H]2[C@H](C(=O)Nc3cnc4c(c3)CCC4O)O[C@@](C)(C(F)(F)F)[C@H]2C)ccc(F)c1F` (single isomer, unassigned) [Compound 4, rel-(2R*,3S*,4S*,5R*)-3-(3,4-difluoro-2-methoxyphenyl)-N-(7-hydroxy-6,7-dihydro-5H-cyclopenta[b]pyridin-3-yl)-4,5-dimethyl-5-(trifluoromethyl)tetrahydrofuran-2-carboxamide], the IC50 was 10 to 100 nM.
In the case of `C[C@H]1[C@@H](c2ccc(F)c(F)c2OCC(=O)N(C)C)[C@H](C(=O)Nc2ccc(CO)nc2)O[C@@]1(C)C(F)(F)F` [Compound 7, (2R,3S,4S,5R)-3-(2-(2-(dimethylamino)-2-oxoethoxy)-3,4-difluorophenyl)-N-(6-(hydroxymethyl)pyridin-3-yl)-4,5-dimethyl-5-(trifluoromethyl)tetrahydrofuran-2-carboxamide], the IC50 is reported as 10 to 100 nM.
`C[C@H]1[C@@H](c2ccc(F)c(F)c2OCCOC(F)F)[C@H](C(=O)Nc2ccc([C@@H](O)CO)nc2)O[C@@]1(C)C(F)(F)F` [Compound 12, (2R,3S,4S,5R)-3-(2-(2-(difluoromethoxy)ethoxy)-3,4-difluorophenyl)-N-(6-((R)-1,2-dihydroxyethyl)pyridin-3-yl)-4,5-dimethy1-5-(trifluoromethyl)tetrahydrofuran-2-carboxamide] showed an IC50 of 10 to 100 nM.
`C[C@H]1[C@@H](c2ccc(F)c(F)c2OCCO)[C@H](C(=O)Nc2ccc(CO)nc2)O[C@@]1(C)C(F)(F)F` [Compound 23, (2R,3S,4S,5R)-3-(3,4-difluoro-2-(2-hydroxyethoxy)phenyl)-N-(6-(hydroxymethyl)pyridin-3-yl)-4,5-dimethyl-5-(trifluoromethyl)tetrahydrofuran-2-carboxamide] showed an IC50 of 10 to 100 nM.
`COc1c([C@H]2[C@H](C(=O)Nc3cnc4c(c3)CCC4O)O[C@@](C)(C(F)(F)F)[C@H]2C)ccc(F)c1F` (single isomer, unassigned) [Compound 3, rel-(2R*,3S*,4S*,5R*)-3-(3,4-difluoro-2-methoxyphenyl)-N-(7-hydroxy-6,7-dihydro-5H-cyclopenta[b]pyridin-3-yl)-4,5-dimethyl-5-(trifluoromethyl)tetrahydrofuran-2-carboxamide] showed an IC50 of 100 to 1000 nM.
For `CO[C@@H](C)COc1c([C@H]2[C@H](C(=O)Nc3ccc(CO)nc3)O[C@@](C)(C(F)(F)F)[C@H]2C)ccc(F)c1F` [Compound 5, (2R,3S,4S,5R)-3-(3,4-difluoro-2-((S)-2-methoxypropoxy)phenyl)-N-(6-(hydroxymethyl)pyridin-3-yl)-4,5-dimethyl-5-(trifluoromethyl)tetrahydrofuran-2-carboxamide], the IC50 was 10 to 100 nM.
`C[C@H]1[C@@H](c2ccc(F)c(F)c2OCCN2CCOCC2)[C@H](C(=O)Nc2ccc([C@@H](O)CO)nc2)O[C@@]1(C)C(F)(F)F` [Compound 11, (2R,3S,4S,5R)-3-(3,4-difluoro-2-(2-morpholinoethoxy)phenyl)-N-(6-((R)-1,2-dihydroxyethyl)pyridin-3-yl)-4,5-dimethyl-5-(trifluoromethyl)tetrahydrofuran-2-carboxamide] was tested, and the IC50 was 10 to 100 nM.
